According to article PMC10696740 (BMC Biology, 2023):
Values joined by “and” are separate entries in the source; they are usually repeats but may differ in a detail not shown here. Identical values can stand only once. “Also recorded” adds a separate entry of the source. Like-named read-outs stand apart in the source and are kept apart here.

Legend:
[1] = target: FtfL from Lactobacillus plantarum (Lactiplantibacillus plantarum, UniProt Q88W76); assay: Inhibition of FtfL enzymatic activity; assay type: biochemical; conditions: 100 nM enzyme
Description: (§1) The activities of the FtfL enzymes were measured according to the protocol described previously.
(§2) Then, the reaction was initiated by adding substrates (0.1 mM tetrahydrofolate, 2 mM MgCl2, 0.05 mM ATP, and 8 mM sodium formate).
(§3) The product was detected with a maximum absorbance at 350 nm (ε = 24.9 mM^−1 cm^−1) using FLUOstar OPTIMA (BMG LABTECH, Offenburgh, Germany). The reaction was performed at 30 °C. The control reaction was performed by replacing BBR with DMSO. […] Data analysis was performed in GraphPad Prism 7.0.

[2] = target: FtfL from Clostridium ljungdahlii (Clostridium ljungdahlii, UniProt D8GTX8); assay: Inhibition of FtfL enzymatic activity; assay type: biochemical
Description: as §1, §2, §3

[3] = target: FtfL from Bacteroides fragilis (Bacteroides fragilis, UniProt Q64U80); assay: Inhibition of FtfL enzymatic activity; assay type: biochemical
Description: as §1, §2, §3

[4] = target: FtfL from Clostridium symbiosum (Clostridium symbiosum, UniProt E7GR72); assay: Inhibition of FtfL enzymatic activity; assay type: biochemical
Description: as §1, §2, §3

[5] = target: FtfL from Parabacteroides distasonis (Parabacteroides distasonis, UniProt A6LAR6); assay: Inhibition of FtfL enzymatic activity; assay type: biochemical
Description: as §1, §2, §3

[6] = target: FtfL from Lactococcus lactis (Lactococcus lactis subsp. lactis, UniProt Q9CH07); assay: Inhibition of FtfL enzymatic activity; assay type: biochemical
Description: as §1, §2, §3

PaFtfL [7] = target: T1, PaFtfL (Peptostreptococcus anaerobius, UniProt A0A379CIH2); assay: Inhibition of FtfL enzymatic activity; assay type: biochemical; conditions: Inhibited by BBR (IC50), FtfL from Peptostreptococcus anaerobius, 20 nM enzyme
T1 sequence (A0A379CIH2 1-558): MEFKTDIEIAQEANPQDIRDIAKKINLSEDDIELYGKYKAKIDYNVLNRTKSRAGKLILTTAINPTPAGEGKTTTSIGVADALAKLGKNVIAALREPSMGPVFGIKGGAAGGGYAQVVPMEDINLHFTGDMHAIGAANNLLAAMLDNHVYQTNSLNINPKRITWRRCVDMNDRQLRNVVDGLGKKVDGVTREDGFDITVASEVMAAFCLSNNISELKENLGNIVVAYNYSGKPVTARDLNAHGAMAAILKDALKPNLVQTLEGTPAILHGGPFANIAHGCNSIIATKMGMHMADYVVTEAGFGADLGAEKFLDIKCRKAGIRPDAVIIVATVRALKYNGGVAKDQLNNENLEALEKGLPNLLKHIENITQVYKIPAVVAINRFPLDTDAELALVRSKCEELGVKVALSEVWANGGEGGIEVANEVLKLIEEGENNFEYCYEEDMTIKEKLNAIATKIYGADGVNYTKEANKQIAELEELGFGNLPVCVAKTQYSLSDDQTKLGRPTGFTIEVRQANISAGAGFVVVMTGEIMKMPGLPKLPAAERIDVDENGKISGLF
Description: as §1, §2, §3

[8] = system: FtfL from Clostridium sporogenes; assay: Inhibition of FtfL enzymatic activity; assay type: biochemical; conditions: ns = no significance, not inhibited by BBR
Description: as §1, §2, §3

[9] = system: Lactobacillus acidophilus ATCC 4356; assay: Effect of BBR on the growth of probiotics; conditions: L. acidophilus ATCC 4356
PaFtfL F383A = PaFtfL F383A (Peptostreptococcus anaerobius, UniProt A0A379CIH2, F383A); assay type: binding, P. anaerobius; conditions: BLI
Description: (§4) A streptavidin matrix-coated sensor chip (SA chip) was firstly equilibrated with buffer A (lysis buffer with 0.05% Tween 20) followed with the immobilization BBP (200 μM) on the SA chip. Next, proteins with increasing concentrations (0.23, 0.91, 3.63, 14.50, and 58.00 μM) were passed on to the chip for the measurement of changes in response unit (nm). The program comprises the stabilization of the baseline with the buffer A for 1 min, 6 min incubation of the BBP with the SA chip for immobilization, stabilizing the baseline again for 3 min, association enabling interaction between proteins and compounds for 4 min, and dissociation for 4 min followed by a regeneration step. […] Raw data were pre-processed, analyzed, and fitted using the 1:1 binding model in the manufacturer’s software (9.0, Pall ForteBio Corp, Menlo Park, CA, USA) to generate kinetic parameters.

PaFtfL Y229A/F383A/W411A = assay type: binding, P. anaerobius; conditions: BLI, tri-mutant
Description: as §4

PaFtfL Y229A = assay type: binding, P. anaerobius; conditions: BLI, allosteric site mutant
Description: as §4

[10] = system: Streptococcus faecalis ATCC 19433; assay: Growth inhibition of CRC pathogenic bacteria by BBR; conditions: S. faecalis ATCC 19433; 0.3 mM and 0.6 mM BBR
[11] = system: Lactobacillus fermentum CGMCC 1.1880; assay: Effect of BBR on the growth of probiotics; conditions: L. fermentum CGMCC 1.1880
[12] = system: Fusobacterium nucleatum ATCC 10953; assay: Growth inhibition of CRC pathogenic bacteria by BBR; conditions: F. nucleatum ATCC 10953; 0.3 mM and 0.6 mM BBR
[13] = target: FtfL from Clostridium perfringens (Clostridium perfringens, UniProt Q0TMI3); assay: biochemical
[14] = target: FtfL from Vibrio cholerae (Vibrio cholerae, UniProt Q9KLX7); assay: Inhibition of FtfL enzymatic activity; assay type: biochemical
[15] = system: Clostridium symbiosum ATCC 14940; assay: Growth inhibition of CRC pathogenic bacteria by BBR; conditions: C. symbiosum ATCC 14940; 0.3 mM and 0.6 mM BBR
[16] = system: Lactococcus lactis DSM 20481; assay: as above; conditions: L. lactis DSM 20481; 0.3 mM and 0.6 mM BBR
PaFtfL [17] = target: T1, PaFtfL; conditions: 40 μM BBR
[18] = system: Lactobacillus bulgaricus BD 15; assay: Effect of BBR on the growth of probiotics; conditions: L. bulgaricus BD 15
[19] = system: Peptostreptococcus anaerobius ATCC 27337; assay: Growth inhibition of CRC pathogenic bacteria by BBR; conditions: P. anaerobius ATCC 27337; 0.3 mM and 0.6 mM BBR
[20] = target: FtfL from Clostridioides difficile (Clostridioides difficile, UniProt Q189R2); assay: Inhibition of FtfL enzymatic activity; assay type: biochemical
hsMTHFD1L [21] = target: T2, hsMTHFD1L (Homo sapiens, UniProt Q6UB35); assay: Inhibition of hsMTHFD1L ligase activity; assay type: biochemical; conditions: 0.4 mM BBR
Description: (§5) Then, the reaction was initiated by adding substrates (2 mM tetrahydrofolate, 10 mM MgCl2, 40 mM sodium formate, and 5 mM ATP).
as §3

[22] = target: FtfL from Fusobacterium nucleatum (Fusobacterium nucleatum, UniProt Q8RHF4); assay: Inhibition of FtfL enzymatic activity; assay type: biochemical
[23] = system: Lactobacillus plantarum DSM 13171; assay: Effect of BBR on the growth of probiotics; conditions: L. plantarum DSM 13171
hsMTHFD1 [24] = target: T3, hsMTHFD1 (Homo sapiens, UniProt P11586); assay: Inhibition of hsMTHFD1 ligase activity; assay type: biochemical; conditions: hsMTHFD1, 0.4 mM BBR
T3 construct: His6 tag with thrombin site of pET28a (inferred) (N); made in house; host or cells: E. coli BL21 (DE3)
Description: as §5, §3

PaFtfL [25] = target: T1, PaFtfL; parameters: species or system P. anaerobius; conditions: BLI, wildtype PaFtfL, immobilized BBP, 1:1 binding model
Description: as §4

[26] = system: Lactobacillus reuteri DSM 17938; assay: Effect of BBR on the growth of probiotics; conditions: L. reuteri DSM 17938
hsMTHFD1L [27] = target: T2, hsMTHFD1L; conditions: BLI, 1:1 binding model
Description: as §4

hsMTHFD1 [28] = target: T3, hsMTHFD1; conditions: BLI, 1:1 binding model
Description: as §4

[29] = target: PaFtfL (P. anaerobius formate tetrahydrofolate ligase) (Peptostreptococcus anaerobius ATCC 27337); assay: crystal structure; sitting drop vapour diffusion at 22 °C, 10 mg/ml protein; three crystal forms: apo, apo crystals soaked with 1 mM ATP, and protein mixed with 1 mM BBR; protomers A/B and C/D form two dimers that assemble into a tetramer

T3 sequence (P11586 whole entry): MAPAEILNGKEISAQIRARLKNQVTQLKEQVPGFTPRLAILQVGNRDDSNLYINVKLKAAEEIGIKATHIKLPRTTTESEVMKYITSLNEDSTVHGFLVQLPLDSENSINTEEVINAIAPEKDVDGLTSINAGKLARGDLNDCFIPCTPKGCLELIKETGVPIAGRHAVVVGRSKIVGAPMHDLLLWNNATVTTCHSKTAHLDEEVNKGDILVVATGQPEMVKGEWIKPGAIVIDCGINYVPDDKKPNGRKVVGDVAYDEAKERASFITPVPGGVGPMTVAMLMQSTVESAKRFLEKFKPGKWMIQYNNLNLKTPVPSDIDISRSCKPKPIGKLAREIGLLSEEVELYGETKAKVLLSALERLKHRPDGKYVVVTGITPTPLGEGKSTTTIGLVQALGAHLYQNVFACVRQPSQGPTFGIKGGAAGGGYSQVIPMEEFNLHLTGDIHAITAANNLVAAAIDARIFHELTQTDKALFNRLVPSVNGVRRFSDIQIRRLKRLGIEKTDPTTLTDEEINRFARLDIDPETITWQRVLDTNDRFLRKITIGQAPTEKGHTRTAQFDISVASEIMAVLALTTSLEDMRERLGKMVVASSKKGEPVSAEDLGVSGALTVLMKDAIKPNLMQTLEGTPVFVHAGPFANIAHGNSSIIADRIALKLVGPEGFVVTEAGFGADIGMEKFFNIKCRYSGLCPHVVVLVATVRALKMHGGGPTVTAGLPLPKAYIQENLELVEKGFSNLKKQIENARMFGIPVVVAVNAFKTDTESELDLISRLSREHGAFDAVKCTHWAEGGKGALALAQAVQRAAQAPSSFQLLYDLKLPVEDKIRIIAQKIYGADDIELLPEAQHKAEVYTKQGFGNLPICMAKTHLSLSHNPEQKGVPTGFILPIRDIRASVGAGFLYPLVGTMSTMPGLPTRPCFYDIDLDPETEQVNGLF
T2 sequence (Q6UB35 349-978 limits assumed): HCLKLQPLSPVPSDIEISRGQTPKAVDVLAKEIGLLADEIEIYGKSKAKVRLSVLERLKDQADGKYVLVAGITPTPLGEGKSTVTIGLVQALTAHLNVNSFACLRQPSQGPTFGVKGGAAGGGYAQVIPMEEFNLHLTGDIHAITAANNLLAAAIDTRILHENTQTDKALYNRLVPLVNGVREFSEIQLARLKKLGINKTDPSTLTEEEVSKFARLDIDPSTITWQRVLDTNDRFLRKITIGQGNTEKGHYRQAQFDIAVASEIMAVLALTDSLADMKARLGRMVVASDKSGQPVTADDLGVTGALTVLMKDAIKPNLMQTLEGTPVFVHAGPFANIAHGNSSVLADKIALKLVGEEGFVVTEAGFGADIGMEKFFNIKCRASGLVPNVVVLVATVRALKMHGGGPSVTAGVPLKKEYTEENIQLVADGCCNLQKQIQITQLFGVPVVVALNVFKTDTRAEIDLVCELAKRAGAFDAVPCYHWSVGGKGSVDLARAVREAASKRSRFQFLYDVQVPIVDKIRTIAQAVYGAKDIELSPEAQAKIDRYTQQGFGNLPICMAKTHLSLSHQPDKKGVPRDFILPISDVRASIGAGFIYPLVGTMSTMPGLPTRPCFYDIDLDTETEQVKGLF
Chain of FtfL from Lactobacillus plantarum (Q88W76 whole entry): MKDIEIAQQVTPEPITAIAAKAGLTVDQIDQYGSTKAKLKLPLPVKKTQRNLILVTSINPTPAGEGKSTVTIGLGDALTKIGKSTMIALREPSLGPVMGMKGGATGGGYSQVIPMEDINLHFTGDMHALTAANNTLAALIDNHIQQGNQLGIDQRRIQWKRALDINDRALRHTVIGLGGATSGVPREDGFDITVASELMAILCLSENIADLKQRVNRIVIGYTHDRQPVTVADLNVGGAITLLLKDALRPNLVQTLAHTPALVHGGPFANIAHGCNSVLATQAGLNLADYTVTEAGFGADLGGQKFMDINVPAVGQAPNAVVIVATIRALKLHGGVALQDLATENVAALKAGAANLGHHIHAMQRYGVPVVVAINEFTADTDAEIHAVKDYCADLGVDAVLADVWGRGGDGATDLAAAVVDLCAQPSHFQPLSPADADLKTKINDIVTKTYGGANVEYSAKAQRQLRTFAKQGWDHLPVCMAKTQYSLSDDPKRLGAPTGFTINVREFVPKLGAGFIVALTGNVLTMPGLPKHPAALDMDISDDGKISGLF
Chain of FtfL from Lactococcus lactis (Q9CH07 whole entry): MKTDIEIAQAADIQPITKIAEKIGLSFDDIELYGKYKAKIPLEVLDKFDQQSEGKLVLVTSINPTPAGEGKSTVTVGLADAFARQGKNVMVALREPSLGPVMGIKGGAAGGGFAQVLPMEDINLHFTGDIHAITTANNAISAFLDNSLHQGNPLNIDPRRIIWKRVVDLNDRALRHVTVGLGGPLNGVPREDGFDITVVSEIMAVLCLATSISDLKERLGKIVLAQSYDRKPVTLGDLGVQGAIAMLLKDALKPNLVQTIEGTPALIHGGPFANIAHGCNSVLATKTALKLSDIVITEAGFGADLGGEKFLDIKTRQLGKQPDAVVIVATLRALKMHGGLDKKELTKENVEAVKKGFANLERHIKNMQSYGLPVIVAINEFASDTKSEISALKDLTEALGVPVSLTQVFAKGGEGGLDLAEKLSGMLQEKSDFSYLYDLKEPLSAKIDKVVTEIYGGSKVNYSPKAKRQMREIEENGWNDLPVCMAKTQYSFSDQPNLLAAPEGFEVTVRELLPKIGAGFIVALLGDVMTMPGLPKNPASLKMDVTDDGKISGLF
Chain of FtfL from Clostridium ljungdahlii (D8GTX8 entry or part of it): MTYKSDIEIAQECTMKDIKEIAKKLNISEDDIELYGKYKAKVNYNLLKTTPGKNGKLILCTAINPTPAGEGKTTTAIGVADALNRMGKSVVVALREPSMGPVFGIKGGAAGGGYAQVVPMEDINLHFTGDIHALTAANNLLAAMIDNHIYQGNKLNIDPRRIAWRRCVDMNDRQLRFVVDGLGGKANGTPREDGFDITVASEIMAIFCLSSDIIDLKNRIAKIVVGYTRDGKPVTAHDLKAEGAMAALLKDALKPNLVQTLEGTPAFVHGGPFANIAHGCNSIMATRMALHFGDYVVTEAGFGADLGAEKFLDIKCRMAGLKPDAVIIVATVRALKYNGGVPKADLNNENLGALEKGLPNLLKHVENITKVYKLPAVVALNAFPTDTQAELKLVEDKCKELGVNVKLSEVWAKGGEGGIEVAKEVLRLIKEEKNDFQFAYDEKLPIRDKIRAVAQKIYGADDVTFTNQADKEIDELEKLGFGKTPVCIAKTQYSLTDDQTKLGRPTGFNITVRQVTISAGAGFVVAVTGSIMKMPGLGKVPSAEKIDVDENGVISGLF

COc1ccc2cc3[n+](cc2c1OC)CCc1cc2c(cc1-3)OCO2 [BBR, Berberine]
IC50 [1]: > 200 µM
IC50 [2]: 83.8 ± 10 µM
IC50 [3]: 105 ± 69.8 µM
IC50 [4]: 129 ± 17.1 µM
IC50 [5]: > 200 µM
IC50 [6]: 118 ± 18.5 µM
IC50 (PaFtfL [7]): 62 µM and 62.3 µM
Inhibited by BBR (IC50) [8]: ns
effect on bacterial growth [9]: promotes growth
reduction of binding affinity versus wildtype PaFtfL (PaFtfL F383A; F383A): 34 fold
Kd (PaFtfL F383A; active site mutant): 23.1 µM
binding affinity of BBR with PaFtfL Y229A/F383A/W411A (PaFtfL Y229A/F383A/W411A): non-detectable
binding affinity of BBR with PaFtfL Y229A (PaFtfL Y229A): The affinity is too weak to fit
effect on bacterial growth [10]: dose-dependent inhibition; also recorded: inhibits the growth
effect on bacterial growth [11]: little effect
effect on bacterial growth [12]: dose-dependent inhibition; also recorded: inhibits the growth
IC50 [13]: 105 ± 3.15 µM
IC50 [14]: 130 ± 12.3 µM
effect on bacterial growth [15]: dose-dependent inhibition; also recorded: inhibits the growth
effect on bacterial growth [16]: dose-dependent inhibition; also recorded: inhibits the growth
apparent Kcat of PaFtfL (PaFtfL [17]; substrate ATP): 16.7 ± 0.83 s⁻¹
apparent Vmax of PaFtfL (PaFtfL [17]; substrate ATP): 0.010 ± 0.0005 mM/min
apparent Kcat of PaFtfL (PaFtfL [17]; substrate THF): 78.3 ± 6.7 s⁻¹
apparent Vmax of PaFtfL (PaFtfL [17]; substrate THF): 0.047 ± 0.004 mM/min
effect on bacterial growth [18]: inhibits growth
effect on bacterial growth [19]: dose-dependent inhibition; also recorded: inhibits the growth
IC50 [20]: 158 ± 68.7 µM
decrease of ligase enzyme activity (hsMTHFD1L [21]): 36%
IC50 [22]: 106 ± 27 µM
effect on bacterial growth [23]: little effect
decrease of ligase enzyme activity (hsMTHFD1 [24]): 58%
Kd (PaFtfL [25]): 0.674 µM
effect on bacterial growth [26]: little effect
Kd (hsMTHFD1L [27]): 0.158 µM
Kd (hsMTHFD1 [28]): 2.3 µM

PaFtfL (P. anaerobius formate tetrahydrofolate ligase) (enzyme)
stoichiometry N [29]: 4
